We go through 26 compounds from US9199965B2, “Benzoimidazole derivatives and pharmaceutical composition comprising the same” (Daewoong Co., Ltd., priority 2005, dated 2015).

One assay deals with T1, rat TRPV1 (Rattus norvegicus, UniProt O35433).
T1 construct: expressed in transfected cells; host or cells: HEK293
Briefly: Assay for inhibitory activity against VR1 patch clamp activity (capsaicin current, inside-out patch). Format: cell-based. Particulars: 1 μM compound with 10 μM capsaicin; rat TRPV1-transfected HEK293, inside-out patch; relative to capsaicin current before compound. The protocol:
Each of the compounds synthesized in the examples were dissolved in dimethyl sulfoxide (DMSO) at a concentration of 10 mM. For use in the assay for inhibitory activity against patch clamp activity, the solutions were diluted to a concentration of 1 μM with the same physiological saline as in the pipette solution of Table 1, below.
2) Assay for Inhibitory Activity Against VR1 Patch Clamp Activity
In this experiment, changes in VR1 activity were recorded in current using an electrophysiological technique.
For use in this experiment, a rat TRPV1 cDNA was transfected into a subcultured HEK293 strain with the aid of lipofectamin.
The rat TRPV1 gene-transfected HEK293 cells were detached from the cell culture dishes with trypsin and distributed on a patch clamp recording chamber.
A cover glass slip on the bottom of the patch clamp recording chamber was treated for 15 min or longer with a […] poly-L-lysine solution so that the HEK cells would readily adhere thereto. Cellular membranes were ruptured at room temperature (˜25° C.) from randomly selected HEK cells to perform an inside-out patch clamp technique. 10 μM of capsaicin was fed into the chamber (cytoplasmic side) to activate a capsaicin current through the VR1. When the capsaicin current reached a stable stage, each compound was added along with 10 μM of capsaicin to record the inhibitory activity of the compounds with regard to the current. The inhibition was expressed as percentages.
Detected current was amplified using a Digidata 1200B A/D converter and an Axopatch 1D amplifier (Axon instruments Inc.), and the data were recorded and analyzed with the aid of a computer. The inhibitory activity of each compound was expressed as a percentage relative to the capsaicin current immediately before the administration of each compound.
A general note: Patch clamp records ionic current or voltage across a cell membrane.

Another assay concerns the target T2, human vanilloid-1 (hVR1) (Homo sapiens, UniProt Q8NER1).
T2 construct: expressed in transfected cells; host or cells: HEK293 Tet-on (hVR1-HEK293), doxycycline-induced
Briefly: Calcium influx of vanilloid receptor in hVR1-HEK293 cells (capsaicin-induced, Fluo-3/AM). Format: cell-based. The following applies: 1 μM capsaicin-induced intracellular calcium influx, read-out: Inhibitory Activity IC50. The method, then: Experiments for calcium influx were performed to measure the activity of the compounds as antagonists.
The cell strain hVR1-HEK293 is the human embryonic kidney (HEK) 293 Tet-on cell transfected with a human vanilloid-1 gene (pTRE2hyg-hVR1, 7.8 kb), which is capable of controlling the expression of VR1 according to the administration of deoxycycline, a tetracycline derivative analog. In a medium supplemented with deoxycycline two days before calcium influx experiments, the cell strain was cultured to induce the expression of VR1. After being grown to a confluency of about 80% in T75 flasks, hVR1-HEK293 was detached from the flask using trypsin. Cells harvested by centrifugation were suspended in a medium supplemented with 1 μg/mL of deoxycycline and diluted to a density of 2-4×10^5 cells/mL, after which a 100 μL aliquot of the cell suspension was added to each well of 96 well black plates. Before the measurement of calcium influx, the cells were incubated for two days at 37° C. in a 5% CO2 incubator.
For use in calcium influx experiments, each compound was dissolved in dimethyl sulfoxide (DMSO).
To measure an intracellular calcium influx, cells were incubated at 37° C. for 90 min in a medium containing the calcium indicator Fluo-3/AM so as to allow the fluorescent dye to penetrate into the cells. Then, the cells were washed three times with D-PBS (Dulbecco's phosphate buffered saline) containing 10 mM HEPES to remove the fluorescent dye which remained outside. 193 μL aliquot of D-PBS was added to each well, followed by the addition of various concentrations of compounds thereto. In order to measure the antagonistic activity of the compounds, calcium influx was induced by treatment with 1 μM capsaicin. The inhibitory effect of each compound on 1 μM capsaicin-induced intracellular calcium influx according to compound concentration was measured using a fluorescent analyzer and the data thus obtained were analyzed on the basis of the Hill's equation.
(In general: Calcium flux is commonly read through the fluorescence of an indicator in the cells.)

For assay [1], the system named is ICR male mice (PBQ-induced writhing). Briefly: PBQ-induced writhing test for analgesic effect. Format: in vivo. The following applies: Mus musculus, 1 h, 20 mg/kg oral, one hour before intraabdominal PBQ (0.02%), read-out: % Inhibition (decrease in number of writhes compared to control). The protocol: A PBQ-induced writhing test was conducted in mice to assay for the analgesic effect of the novel compounds. Five-week-old ICR male mice were treated with PBQ (phenyl-p-quinone, 0.02%). A suspension of 20 mg of test material in 10 mL of physiological saline was used per kg of weight of mice. Test materials in combination with a carrier were orally administered one hour before the intraabdominal injection of PBQ in a dose of 10 mL per kg weight. From 5 min after the injection, individual mice in each test group were measured for numbers of writhes at regular intervals of 10 min. Analgesic effects of test compounds were expressed as percentages of the decrease in number of writhes compared to a control. [% Inhibition=(Control administered with carrier alone−Group administered with test material)/control administered with carrier alone×100]
(Writhing tests count abdominal constrictions after an irritant is injected.)

The structures appear in SMILES notation.

T2 sequence (Q8NER1 whole entry): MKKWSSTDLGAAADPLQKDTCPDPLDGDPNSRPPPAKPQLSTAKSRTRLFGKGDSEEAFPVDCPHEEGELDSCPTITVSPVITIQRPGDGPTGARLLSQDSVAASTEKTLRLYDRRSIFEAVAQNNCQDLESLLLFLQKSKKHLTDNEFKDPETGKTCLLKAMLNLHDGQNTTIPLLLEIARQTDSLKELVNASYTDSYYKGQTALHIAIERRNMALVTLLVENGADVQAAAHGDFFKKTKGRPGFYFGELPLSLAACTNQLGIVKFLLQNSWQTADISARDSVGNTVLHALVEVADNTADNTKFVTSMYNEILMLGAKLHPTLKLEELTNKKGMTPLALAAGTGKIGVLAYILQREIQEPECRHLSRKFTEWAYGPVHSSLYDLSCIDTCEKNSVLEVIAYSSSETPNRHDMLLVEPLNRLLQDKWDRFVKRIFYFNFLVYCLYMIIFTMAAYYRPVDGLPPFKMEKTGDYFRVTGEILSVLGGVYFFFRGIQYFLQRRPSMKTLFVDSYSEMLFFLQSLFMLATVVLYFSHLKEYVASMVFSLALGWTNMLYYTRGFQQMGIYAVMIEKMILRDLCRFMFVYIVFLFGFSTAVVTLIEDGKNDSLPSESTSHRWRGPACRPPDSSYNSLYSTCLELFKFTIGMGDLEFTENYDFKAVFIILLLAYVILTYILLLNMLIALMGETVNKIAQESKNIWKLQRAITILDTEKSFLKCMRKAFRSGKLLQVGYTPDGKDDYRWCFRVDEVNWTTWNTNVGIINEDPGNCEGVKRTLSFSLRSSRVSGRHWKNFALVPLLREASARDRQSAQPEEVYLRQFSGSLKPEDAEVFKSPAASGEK
T1 sequence (O35433 whole entry): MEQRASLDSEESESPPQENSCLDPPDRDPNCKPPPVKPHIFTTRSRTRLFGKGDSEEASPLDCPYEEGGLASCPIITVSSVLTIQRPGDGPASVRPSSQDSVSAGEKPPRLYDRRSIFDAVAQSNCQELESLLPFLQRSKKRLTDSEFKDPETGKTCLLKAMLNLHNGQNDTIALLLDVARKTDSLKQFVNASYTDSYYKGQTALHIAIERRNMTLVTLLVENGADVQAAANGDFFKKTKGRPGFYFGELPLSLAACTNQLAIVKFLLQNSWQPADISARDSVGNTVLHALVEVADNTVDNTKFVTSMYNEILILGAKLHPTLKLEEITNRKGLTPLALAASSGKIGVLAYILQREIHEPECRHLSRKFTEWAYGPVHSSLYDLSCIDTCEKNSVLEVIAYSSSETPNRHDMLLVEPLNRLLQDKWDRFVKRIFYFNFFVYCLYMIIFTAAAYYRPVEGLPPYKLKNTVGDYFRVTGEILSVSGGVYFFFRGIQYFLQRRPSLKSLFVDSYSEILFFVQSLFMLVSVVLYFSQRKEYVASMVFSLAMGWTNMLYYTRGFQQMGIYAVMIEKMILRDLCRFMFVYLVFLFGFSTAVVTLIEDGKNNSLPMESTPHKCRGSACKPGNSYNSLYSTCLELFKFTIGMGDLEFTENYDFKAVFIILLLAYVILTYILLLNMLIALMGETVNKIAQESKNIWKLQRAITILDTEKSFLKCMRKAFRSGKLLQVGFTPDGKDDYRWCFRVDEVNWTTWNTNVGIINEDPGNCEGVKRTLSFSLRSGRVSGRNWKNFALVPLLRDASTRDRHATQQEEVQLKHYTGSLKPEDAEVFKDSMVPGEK

As for `Clc1ccc2nc(-c3ccc(-c4ncccc4Cl)cc3)[nH]c2c1` [Compound 2, 6-chloro-2-[4-(3-chloropyridin-2-yl)phenyl]-1H-benzoimidazole], at rat TRPV1, the inhibition at 1 µM stood at 45%. Further, at human vanilloid-1 (hVR1), the half-inhibitory concentration (IC50) came out at 8570 nM.
The like results for `COc1ccc2nc(-c3ccc(-c4ncccc4Cl)cc3)[nH]c2c1` [Compound 5, 2-[4-(3-chloropyridin-2-yl)phenyl]-6-methoxy-1H-benzoimidazole] were, in that order, 10% and 6040 nM.
Taken in the same sequence, the figures for `FC(F)(F)c1cnc2nc(-c3ccc(-c4ncccc4Cl)cc3)[nH]c2c1` [Compound 8, 2-[4-(3-chloropyridin-2-yl)phenyl]-6-trifluoromethyl-1H-imidazo[4,5-b]pyridine] were 41% and 31 nM.
The like results for `Cc1ccc2nc(-c3ccc(-c4ncccc4Cl)cc3)[nH]c2c1C` [Compound 10, 2-[4-(3-chloropyridin-2-yl)phenyl]-6,7-dimethyl-1H-benzoimidazole] were, in that order, 80% and 114 nM.
On to `CC(C)(C)c1ccc2nc(-c3ccc(-c4ncccc4C(F)(F)F)cc3)[nH]c2c1` [Compound 30, 6-tert-butyl-2-[4-(3-trifluoromethylpyridin-2-yl)phenyl]-1H-benzoimidazole], for which, at rat TRPV1, the inhibition at 1 µM was 96%. At human vanilloid-1 (hVR1), the IC50 worked out at 23 nM.
The like results for `FC(F)(F)c1cccnc1-c1ccc(-c2nc3ccc(Cl)cc3[nH]2)cc1` [Compound 32, 6-chloro-2-[4-(3-trifluoromethylpyridin-2-yl)phenyl]-1H-benzoimidazole] were, in that order, 78% and 13 nM.
The like results for `FC(F)(F)c1cnc2nc(-c3ccc(-c4ncccc4C(F)(F)F)cc3)[nH]c2c1` [Compound 34, 6-trifluoromethyl-2-[4-(3-trifluoromethylpyridin-2-yl)phenyl]-1H-imidazo[4,5-b]pyridine] were, in that order, 16% and 26 nM.
Regarding `CC(C)(C)c1ccc2nc(-c3ccc(-c4ncc(Cl)cc4Cl)cc3F)[nH]c2c1` [Compound 70, 6-tert-butyl-2-[4-(3,5-dichloropyridin-2-yl)-2-fluorophenyl]-1H-benzoimidazole], the inhibition at 1 µM against rat TRPV1 stood at 45%.
In turn, `FC(F)(F)c1ccc2nc(-c3ccc(-c4ncccc4Cl)c4ccccc34)[nH]c2c1` [Compound 104, 2-[4-(3-chloropyridin-2-yl)naphthalen-1-yl]-6-trifluoromethyl-1H-benzoimidazole] displayed an inhibition at 1 µM against rat TRPV1 of 86%. The half-inhibitory concentration (IC50) at human vanilloid-1 (hVR1) came out at 31 nM.
As for `FC(F)(F)c1cc(C(F)(F)F)c2nc(-c3ccc(-c4ccccn4)c4ccccc34)[nH]c2c1` [Compound 115, 2-(4-pyridin-2-ylnaphthalen-1-yl)-4,6-bistrifluoromethyl-1H-benzoimidazole], the inhibition at 1 µM against rat TRPV1 is 71%.
The same measure, in the same setting: with `CC(C)(C)c1ccc2nc(-c3ccc(-c4ncccc4Cl)c(Cl)c3)[nH]c2c1` [Compound 116, 6-tert-butyl-2-[3-chloro-4-(3-chloropyridin-2-yl)phenyl]-1H-benzoimidazole] the figure was 30%.
`FC(F)(F)c1ccc2nc(-c3ccc(-c4ncc(Cl)cc4Cl)c(Cl)c3)[nH]c2c1` [Compound 117, 2-[3-chloro-4-(3,5-dichloropyridin-2-yl)phenyl]-6-trifluoromethyl-1H-benzoimidazole] came in with an inhibition at 1 µM on rat TRPV1 of 80%. For the same compound, the IC50 at human vanilloid-1 (hVR1) amounted to 525 nM.
Taken in the same sequence, the figures for `CC(C)(C)c1ccc2nc(-c3ccc(-c4ncc(Cl)cc4Cl)c(Cl)c3)[nH]c2c1` [Compound 118, 6-tert-butyl-2-[3-chloro-4-(3,5-dichloropyridin-2-yl)phenyl]-1H-benzoimidazole] were 93% and 313 nM.
In turn, `CC(C)(C)c1ccc2nc(-c3ccc(-c4ncc(C(F)(F)F)cc4Cl)c(Cl)c3)[nH]c2c1` [Compound 121, 6-tert-butyl-2-[3-chloro-4-(3-chloro-5-trifluoromethylpyridin-2-yl)phenyl]-1H-benzoimidazole] registered an inhibition at 1 µM against rat TRPV1 of 76%.
`CC(C)(C)c1ccc2nc(-c3ccc(-c4ccccn4)c(Cl)c3)[nH]c2c1` [Compound 126, 6-tert-butyl-2-(3-chloro-4-pyridin-2-ylphenyl)-1H-benzoimidazole]: at 1 µM the inhibition on rat TRPV1 was 87%. In addition, on human vanilloid-1 (hVR1), the IC50 was 105 nM.
With `FC(F)(F)c1ccc2nc(-c3ccc(-c4ncc(Cl)cc4Cl)cn3)[nH]c2c1` [Compound 151, 3,5-dichloro-6′-(6-trifluoromethyl-1H-benzoimidazole-2-yl)-[2,3′]bipyridine], the inhibition at 1 µM against rat TRPV1 was determined as 84%. For the same compound, the IC50 on human vanilloid-1 (hVR1) turned out to be 97 nM.
Taken in the same sequence, the figures for `FC(F)(F)c1cc(Cl)c2nc(-c3ccc(-c4ncccc4C(F)(F)F)cn3)[nH]c2c1` [Compound 161, 6′-(4-chloro-6-trifluoromethyl-1H-benzoimidazole-2-yl)-3-trifluoromethyl-[2,3′]bipyridine and 6′-(5-trifluoromethyl-7-chloro-1H-benzoimidazole-2-yl)-3-trifluoromethyl-[2,3′]bipyridine] were 58% and 23 nM.
As to `FC(F)(F)c1cccnc1-c1ccc(-c2nc3ncc(Br)cc3[nH]2)nc1` [Compound 167, 6′-(6-bromo-1H-imidazo[4,5-b]pyridine-2-yl)-3-trifluoromethyl[2,3′]bipyridine], the inhibition in vivo at 20 mg/kg in assay [1] is 55%.
Take `FC(F)(F)c1ccc2nc(-c3ccc(-n4cccc4)cc3)[nH]c2c1` [Compound 178, 2-(4-pyrrol-1-ylphenyl]-6-trifluoromethyl-1H-benzoimidazole]: at 1 µM the inhibition against rat TRPV1 was 20%.
Still for that read-out and setting: with `c1cnc2[nH]c(-c3ccc(-n4cccc4)cc3)nc2c1` [Compound 179, 2-(4-pyrrol-1-ylphenyl)-3H-imidazo[4,5-b]pyridine] the figure was 100%.
For the compound `CC(C)(C)c1ccc2nc(-c3ccc(-n4cccc4)cc3)[nH]c2c1` [Compound 181, 6-tert-butyl-2-(4-pyrrol-1-ylphenyl]-1H-benzoimidazole], the inhibition at 1 µM at rat TRPV1 amounted to 40%. In addition, the IC50 at human vanilloid-1 (hVR1) worked out at 221 nM.
`FC(F)(F)c1ccc2nc(-c3ccc(-c4ccccc4)cc3)[nH]c2c1` [Compound 183, 2-biphenyl-4-yl-6-trifluoromethyl-1H-benzoimidazole]: at rat TRPV1, testing at 1 µM gave an inhibition of 17%.
Same read-out and setting: with `FC(F)(F)c1ccc2nc(-c3ccc(Oc4ccccc4)cc3)[nH]c2c1` [Compound 189, 2-(4-phenoxyphenyl-6-trifluoromethyl)-1H-benzoimidazole] the figure was 90%; with `Clc1ccc2nc(-c3ccc(Oc4ccccc4)cc3)[nH]c2c1` [Compound 191, 6-chloro-2-(4-phenoxyphenyl)-1H-benzoimidazole], 60%; with `Fc1ccc2nc(-c3ccc(Oc4ccccc4)cc3)[nH]c2c1` [Compound 193, 6-fluoro-2-(4-phenoxyphenyl)-1H-benzoimidazole], 50%.
The same measure, in the same setting: with `COc1ccc2nc(-c3ccc(Oc4ccccc4)cc3)[nH]c2c1` [Compound 194, 6-methoxy-2-(4-phenoxyphenyl)-1H-benzoimidazole] the figure was 30%.

What is called inhibition is the share of the control response that was lost under treatment. A low value points to little suppression. As usually defined, the IC50 is the concentration that inhibits the measured activity by half.
